US7968577B2 (Bristol-Myers Squibb Company, priority 2006, dated 2011)

System: AP-1 induced transcriptional activity
Assay: Cellular Transrepressional Assay: AP-1 luciferase reporter in PMA-activated A549 cells
Type: cell-based
Settings: for Emax: A549, 7 h, maximum inhibition, read-out: AP-1 Max % inh (Cellular Transrepression Assay)
Description: Cellular Transrepressional Assay
To measure the ability of test molecules to inhibit AP-1 induced transcriptional activity we utilized an A549 cell which was stably transfected with a plasmid containing 7× AP-1 DNA binding sites (pAP-1-Luc plasmid, Stratagene Co. La Jolla, Calif.) followed by the gene for luciferase. Cells were activated with 10 ng/ml of […] (PMA) plus or minus test molecules for 7 hours. After 7 hours a luciferase reagent was added to measure luciferase enzymatic activity in the cell. After a 10 minute incubation of luciferase reagent with cells, luminescence was measured in a TopCount luminescence counter. Repression of AP-1 activity was calculated as the percentage decrease in the signal induced by PMA alone. Test molecules were analyzed in the concentration range from 0.1 nM to 40 μM. EC50s were determined by using standard curve fitting methods such as Excel fit (Microsoft Co.).

[1] = Homo sapiens, Cellular Transrepression Assay
[2] = Homo sapiens, A549, Cellular Transrepression Assay

| Structure (SMILES) | EC50 [2] [nM] | EC50 (Cellular Transrepression Assay) [nM] | Emax [1] [%] |
| --- | --- | --- | --- |
| CC(C)(C(=O)Nc1nc(Cc2ccc(-c3ccncc3)cc2)cs1)C(c1ccccc1)c1cccc(O)c1 (stereo not drawn) [Example 357] | 144 | – | 73.7 |
| COc1ccc(Cc2csc(NC(=O)C(C)(C)C(c3ccccc3)c3cccc(OC)c3)n2)cc1 (stereo not drawn) [Example 298, 2,2-dimethyl-3-(3-(methyloxy)phenyl)-N-(4-((4-(methyloxy)phenyl)methyl)-1,3-thiazol-2-yl)-3-phenylpropanamide] | 417 | – | 78.7 |
| CC(C)Oc1ccc(-c2ccc(C(c3ccccc3)C(C)(C)C(=O)Nc3nncs3)cc2)cc1 (stereo not drawn) [Example 382, 2,2-dimethyl-3-(4′-((1-methylethyl)oxy)-4-biphenylyl)-3-phenyl-N-1,3,4-thiadiazol-2-ylpropanamide] | 28.1 | – | 40.1 |
| CCOC(=O)c1sc(NC(=O)C(C)(C)C(c2ccccc2)c2cccc(OC)c2)nc1C (stereo not drawn) [Example 100, ethyl 2-((2,2-dimethyl-3-(3-(methyloxy)phenyl)-3-phenylpropanoyl)amino)-4-methyl-1,3-thiazole-5-carboxylate] | – | – | 30 |
| COc1ccccc1C(c1ccccc1)C(C)(C)C(=O)Nc1nc(-c2ccccc2)cs1 (stereo not drawn) [Example 84, 2,2-dimethyl-3-(2-(methyloxy)phenyl)-3-phenyl-N-(4-phenyl-1,3-thiazol-2-yl)propanamide] | – | – | 30.8 |
| Cc1ccc(C(c2ccc(N3CCOCC3)cc2)C(C)(C)C(=O)Nc2nccs2)cc1 (stereo not drawn) [Example 227, 2,2-dimethyl-3-(4-methylphenyl)-3-(4-(4-morpholinyl)phenyl)-N-1,3-thiazol-2-ylpropanamide] | 666 | – | 43.7 |
| CC(C)(C(=O)Nc1nc(Cc2ccc(-c3ccncc3)cc2)cs1)C(c1ccccc1)c1ccc(Br)cc1 (stereo not drawn) [Example 300, 3-(4-bromophenyl)-2,2-dimethyl-3-phenyl-N-(4-((4-(4-pyridinyl)phenyl)methyl)-1,3-thiazol-2-yl)propanamide] | 9.97 | – | 73.7 |
| CC(C)c1cccc(-c2ccc(C(c3ccccc3)C(C)(C)C(=O)Nc3nncs3)cc2)c1 (stereo not drawn) [Example 423, 3-(3′-isopropyl-4-biphenylyl)-2,2-dimethyl-3-phenyl-N-1,3,4-thiadiazol-2-ylpropanamide] | 6.07 | – | 34.8 |
| CC(C)(C(=O)Nc1nncs1)C(c1ccccc1)c1ccc(-c2ccc(C(=O)N3CCOCC3)cc2)cc1 (stereo not drawn) [Example 401, 2,2-dimethyl-3-(4′-(4-morpholinylcarbonyl)-4-biphenylyl)-3-phenyl-N-1,3,4-thiadiazol-2-ylpropanamide] | 13.3 | – | 47 |
| COc1cccc2sc(NC(=O)C(C)(C)C(c3ccccc3)c3ccccc3)nc12 [Example 46, 2,2-dimethyl-N-(4-(methyloxy)-1,3-benzothiazol-2-yl)-3,3-diphenylpropanamide] | – | – | 22.9 |
| COc1cccc(C(c2ccccc2)C(C)(C)C(=O)Nc2nccs2)c1 (stereo not drawn) [Example 91, 2,2-dimethyl-3-(3-(methyloxy)phenyl)-3-phenyl-N-1,3-thiazol-2-ylpropanamide] | – | – | 23.2 |
| COc1cccc(C(c2ccccc2)C(C)(C)C(=O)Nc2nc(Cc3ccc(-c4ccncc4)cc3)cs2)c1 (stereo not drawn) [Example 305, 2,2-dimethyl-3-(3-(methyloxy)phenyl)-3-phenyl-N-(4-((4-(4-pyridinyl)phenyl)methyl)-1,3-thiazol-2-yl)propanamide] | 22.5 | – | 84.2 |
| COc1ccc(C(c2ccc(OC)cc2)C(C)(C)C(=O)Nc2nc(C(C)(C)C)cs2)cc1 [Example 74, N-(4-(1,1-dimethylethyl)-1,3-thiazol-2-yl)-2,2-dimethyl-3,3-bis(4-(methyloxy)phenyl)propanamide] | – | – | 28.1 |
| CCOC(=O)c1sc(NC(=O)C(C)(C)C(c2ccc(O)cc2)c2ccc(O)cc2)nc1C [Example 194, ethyl 2-((3,3-bis(4-hydroxyphenyl)-2,2-dimethylpropanoyl)amino)-4-methyl-1,3-thiazole-5-carboxylate] | – | – | 25.4 |
| COc1ccc([C@@H](c2ccccc2)C(C)(C)C(=O)Nc2nncs2)cc1 [Example 276, (3R)-2,2-dimethyl-3-(4-(methyloxy)phenyl)-3-phenyl-N-1,3,4-thiadiazol-2-ylpropanamide] | 190 | – | 34 |
| CC(C)(C(=O)Nc1nccs1)C(c1ccc(N2CCOCC2)cc1)c1cccc(F)c1 (stereo not drawn) [Example 228, 3-(3-fluorophenyl)-2,2-dimethyl-3-(4-(4-morpholinyl)phenyl)-N-1,3-thiazol-2-ylpropanamide] | 33.5 | – | 36.9 |
| CCOC(=O)c1sc(NC(=O)C(C)(C)C(c2ccccc2)c2cccc(O)c2)nc1C (stereo not drawn) [Example 206, ethyl 2-((3-(3-hydroxyphenyl)-2,2-dimethyl-3-phenylpropanoyl)amino)-4-methyl-1,3-thiazole-5-carboxylate] | – | – | 37.7 |
| CC(C)(C(=O)Nc1nc(-c2ccc(F)c3ccccc23)cs1)C(c1ccccc1)c1ccccc1 [Example 183, N-(4-(4-fluoro-1-naphthalenyl)-1,3-thiazol-2-yl)-2,2-dimethyl-3,3-diphenylpropanamide] | – | – | 65.3 |
| CC(C)(C(=O)Nc1nc(-c2cccc3ccccc23)cs1)C(c1ccccc1)c1ccc(O)cc1 (stereo not drawn) [Example 217, 3-(4-hydroxyphenyl)-2,2-dimethyl-N-(4-(1-naphthalenyl)-1,3-thiazol-2-yl)-3-phenylpropanamide] | 516 | – | 35 |
| COc1ccc([C@H](c2ccccc2)C(C)(C)C(=O)Nc2nc(Cc3ccc(-c4ccncc4)cc3)cs2)cc1 (stereo in doubt) [Example 291, 2,2-dimethyl-3-(4-(methyloxy)phenyl)-3-phenyl-N-(4-((4-(4-pyridinyl)phenyl)methyl)-1,3-thiazol-2-yl)propanamide] | 10.3 | – | 74.3 |
| CC(C)(C)c1ccc(C(c2ccccc2)C(C)(C)C(=O)Nc2nc(Cc3ccc(-c4ccncc4)cc3)cs2)cc1 (stereo not drawn) [Example 303, 3-(4-(1,1-dimethylethyl)phenyl)-2,2-dimethyl-3-phenyl-N-(4-((4-(4-pyridinyl)phenyl)methyl)-1,3-thiazol-2-yl)propanamide] | 16.6 | – | 75.7 |
| CC(C)(C(=O)Nc1nccs1)C(c1ccc(O)cc1)c1ccc(O)cc1 [Example 186, 3,3-bis(4-hydroxyphenyl)-2,2-dimethyl-N-1,3-thiazol-2-ylpropanamide] | – | – | 20.5 |
| CC(C)(C(=O)Nc1nccs1)[C@@H](c1ccccc1)c1ccc(OC(=O)c2ccco2)cc1 [Example 362, 4-((1S)-2,2-dimethyl-3-oxo-1-phenyl-3-(1,3-thiazol-2-ylamino)propyl)phenyl 2-furancarboxylate] | 16.6 | – | 33.4 |

Second part, led by results:

| EC50 [2] [nM] | EC50 (Cellular Transrepression Assay) [nM] | Structure (SMILES) | Emax [1] [%] |
| --- | --- | --- | --- |
| 39 | – | CC(=O)c1ccc(-c2ccc(C(c3ccccc3)C(C)(C)C(=O)Nc3nncs3)cc2)cc1 (stereo not drawn) [Example 406, 3-(4′-acetyl-4-biphenylyl)-2,2-dimethyl-3-phenyl-N-1,3,4-thiadiazol-2-ylpropanamide] | 29.4 |
| – | 114 | CC(C)(C(=O)Nc1nncs1)C(c1ccccc1)c1ccc(N2CCOCC2)cc1 (stereo not drawn) [Example 225, 2,2-dimethyl-3-(4-(4-morpholinyl)phenyl)-3-phenyl-N-1,3,4-thiadiazol-2-ylpropanamide] | 34.3 |
| 262 | – | COc1ccc(Cc2csc(NC(=O)C(C)(C)C(c3ccccc3)c3ccccc3)n2)cc1 [Example 297, 2,2-dimethyl-N-(4-((4-(methyloxy)phenyl)methyl)-1,3-thiazol-2-yl)-3,3-diphenylpropanamide] | 77.3 |
| 18.5 | – | COc1ccc(C(c2ccccc2)C(C)(C)C(=O)Nc2nc(Cc3ccc(-c4ccncc4)cc3)cs2)cc1 (stereo not drawn) [Example 289, 2,2-dimethyl-3-(4-(methyloxy)phenyl)-3-phenyl-N-(4-((4-(4-pyridinyl)phenyl)methyl)-1,3-thiazol-2-yl)propanamide] | 71.6 |
| 216 | – | COc1ccc(Cc2csc(NC(=O)C(C)(C)C(c3ccccc3)c3ccc(OC)cc3)n2)cc1 (stereo not drawn) [Example 288, 2,2-dimethyl-3-(4-(methyloxy)phenyl)-N-(4-((4-(methyloxy)phenyl)methyl)-1,3-thiazol-2-yl)-3-phenylpropanamide] | 62.2 |
| 3.63 | – | CC(C)(C(=O)Nc1nncs1)C(c1ccccc1)c1ccc(-c2ccc(C(=O)NC3CC3)cc2)cc1 (stereo not drawn) [Example 425, N-cyclopropyl-4′-(2,2-dimethyl-3-oxo-1-phenyl-3-(1,3,4-thiadiazol-2-ylamino)propyl)-4-biphenylcarboxamide] | 28.7 |
| 267 | – | CC(C)CC(c1ccc(-c2ccc(OC(C)C)cc2)cc1)C(C)(C)C(=O)Nc1nccs1 (stereo not drawn) [Example 400, 2,2,5-trimethyl-3-(4′-((1-methylethyl)oxy)-4-biphenylyl)-N-1,3-thiazol-2-ylhexanamide] | 46.1 |
| 184 | – | CC(C)(C(=O)Nc1nccs1)[C@@H](c1ccccc1)c1ccc(OC(=O)c2ccoc2)cc1 [Example 364, 4-((1S)-2,2-dimethyl-3-oxo-1-phenyl-3-(1,3-thiazol-2-ylamino)propyl)phenyl 3-furancarboxylate] | 39.1 |
| 9.65 | – | COc1ccc([C@@H](c2ccccc2)C(C)(C)C(=O)Nc2nc(Cc3ccc(-c4ccncc4)cc3)cs2)cc1 (stereo in doubt) [Example 290, 2,2-dimethyl-3-(4-(methyloxy)phenyl)-3-phenyl-N-(4-((4-(4-pyridinyl)phenyl)methyl)-1,3-thiazol-2-yl)propanamide] | 72.6 |
| 90.3 | – | CC(C)(C(=O)Nc1nncs1)[C@H](c1ccccc1)c1ccc(O)cc1 [Example 340, (3R)-3-(4-hydroxyphenyl)-2,2-dimethyl-3-phenyl-N-1,3,4-thiadiazol-2-ylpropanamide] | 57 |
